Experimental data taken from publication PMC7876106 (Scientific Reports, 2021).
Blank lines part the entries; values can stand above or below the compound they belong to.

Columns and labels:
antisense TERRA = experiment: FP assay, FITC labeled TRF2 peptide with antisense TERRA; assay type: binding; settings: 10 nM FITC peptide
Method: (§1) All the nucleic acids, peptides and chemicals were dissolved in buffer containing 20 mM HEPES pH7.5, 150 mM salt (KCl, NaCl, LiCl) at the stock concentration of 1 mM. For peptide and nucleic acid interactions, 25μL of each nucleic acids with a sequential twofold dilutions starting from 50 μM was added into each well of 96-well plate followed by adding 25μL of 10 nM FITC labeled TRF2 peptide. For compounds and nucleic acid interactions, 20μL of each compounds with a sequential twofold dilutions starting from 50 μM were added into each well of 96-well plate followed by adding 5μL of 20 ng/mL tRNA and 25μL of 10 nM FAM labeled nucleic acids. For inhibition assay, 5μL FITC labeled TRF2 GAR peptide (10 nM final concentration) and 10 μL oligos (5 μM final concentration) were mixed, followed by adding 5μL of each compound with a sequential twofold dilutions starting from 50 μM into each well of 384-well plate. All components were mixed thoroughly, and the plate was incubated at room temperature for 1 h before placing in an Envision Plate Reader for reading at 495/520 nm. All data curves were fitted using Prism 8.0.

TeloDNA = experiment: FP assay, FITC labeled TRF2 peptide with TeloDNA; assay type: binding; settings: 10 nM FITC peptide
Method: as §1

TERRA [1] = experiment: FP assay, FITC labeled TRF2 peptide with TERRA; assay type: binding; settings: 10 nM FITC peptide
Method: as §1

antisense TeloDNA = experiment: FP assay, FITC labeled TRF2 peptide with antisense TeloDNA; assay type: binding; settings: 10 nM FITC peptide
Method: as §1

TERRA in LOX cells = experiment: TERRA levels by RNA dot blot and Northern blot in LOX cells; assay type: cell-based, human
[2] = tested on: telomere repeat DNA in LOX cells; experiment: Telomere length analysis (PFGE, Southern blot) of LOX cells; assay type: cell-based, human; settings: TLA
Method: Genomic DNA was isolated from cells using a genomic DNA purification kit (Promega) and digested with AluI and MboI. Digested genomic DNA was purified by phenol/choloroform extraction and quantified using a Qubit 4 Fluorometer (Thermal Scientific). Equal amounts of digested DNA (5 μg) were separated by pulse-field gel electrophoresis (PFGE) performed with a 1% agarose gel at 6V/cm, switch times from 1 to 12s, 15 °C for 12h using CHEF-DRIII system (Bio-Rad). The DNA was transferred to GeneScreen Plus blotting membranes (Perkin-Elmer) and analyzed by Southern blot. The blots were hybridized with a 32P-labeled telomere repeat or […]
Alu probe at 42 °C overnight, then washed twice for 5 min each with 0.2 M wash buffer (0.2 M Na2HPO4 pH 7.2, 1 mM EDTA, and 2% SDS) at room temperature and once for 10 min with 0.1 M wash buffer at 42°C. Relative telomere-repeat signals were determined by Typhoon 9410 Imager and ImageQuant TL software (GE Healthcare). Signal intensity represents the percentage decrease of average telomere signals relative to dox (-) or PP control. […]
(§2) 100, 1 mM EDTA in 1x PBS) before immuno-staining. Primary antibodies were prepared in blocking solution at following dilutions: anti-53BP1 (1:500, IHC-00001; Bethyl Laboratories) and γH2AX (1:2,000, A300-081A; Bethyl Laboratories). After IF, cells were fixed in 4% paraformaldehyde in 1x PBS for 10 min, washed in 1x PBS, dehydrated in ethanol series (70%, 95%, 100%), and air-dried. Coverslips were denatured for 5 min at 80-85° C in hybridization mix [70% formamide, 10 mM Tris-HCl, pH 7.2, and 0.5% blocking solution (Roche)] containing telomeric PNA-Cy3-(CCCTAA)3 probe, and hybridization was continued for 2 hrs at room temperature in the dark moisturized chambers. Coverslips were washed twice for 15 min each with 70% formamide, 10 mM Tris-HCl (pH 7.2), and 0.1% BSA, and followed by three washes for 5 min each with 0.15 M NaCl, 0.1 M Tris-HCl (pH 7.2), and 0.08% Tween-20. Nuclei were counterstained with 0.1 µg/ml DAPI in blocking solution and coverslips mounted with VectorShield (Vector Laboratories). RNA FISH was performed as previously described 1.
Images were captured with a 100x lens on a Nikon E600 Upright microscope (Nikon

[3] = tested on: TERRA (5'-fluorescein) (RNA, G4) UUAGGGUUAGGGUUAGGGUUAGGG; experiment: fluorescence polarization; settings: 20 mM HEPES pH 7.5, room temperature; for binding: 150 mM salt (KCl, NaCl or LiCl; which not stated), tRNA competitor, dilutions from 50 μM compound
TERRA [4] = experiment: FP assay, compound binding to 5′ fluorescein-labeled TERRA
Method: as §1

G4 TeloDNA = experiment: FP assay, compound binding to 5′ fluorescein-labeled TeloDNA
Method: as §1

[5] = tested on: TeloDNA (5'-fluorescein) (DNA, G4) TTAGGGTTAGGGTTAGGGTTAGGG; experiment: fluorescence polarization; settings: 20 mM HEPES pH 7.5, room temperature; for binding: 150 mM salt (KCl, NaCl or LiCl; which not stated), tRNA competitor, dilutions from 50 μM compound
EBNA1 G4 RNA = experiment: FP assay, compound binding to EBNA1 G4 RNA
Method: as §1

TERRA and TRF2 complex = experiment: FP inhibition assay, TRF2 GAR binding to TERRA; settings: FP
Method: as §1

LOX cells = experiment: TIF assay (IF FISH, γH2AX or 53BP1 with telomere DNA) in LOX cells; assay type: cell-based, human; settings: 2 μM, 3 days
Method: Mei et al, 2020 TERRA Requires TRF2 GAR Domain […]
as §2, with “Indirect immunofluorescence (IF) combined with fluorescence in situ hybridization (FISH) analysis for telomere dysfunction was performed as described 4 with some modifications. Briefly, cells grown on coverslips were fixed for 15 min in 2% paraformaldehyde/1x PBS at RT, followed by permeabilization for 10 min in 1x PBS/0.5% Triton X-100 at RT. After washing with 1x PBS, cells were incubated for 60 min in blocking solution (0.5% BSA, 0.2% fish gelatin, 0.1% Triton X-100,” for “100,”
Images were captured with a 100x lens on a Nikon E600 Upright microscope (Nikon […]
Instruments, Inc., Melville, NY) with ImagePro Plus software (Media Cybernetics, Silver Spring, MD) for image processing. Cells with > 5 53BP1/γH2AX foci co-localizing with telomere DNA foci were scored as positive for TIF. The quantification was generated from at least three independent Immuno-FISH experiments. […]
0.1 μg/mL DAPI in 1x PBS and slides were mounted with VectorShield (Vector Laboratories).
Images were taken with a 100x lens on a Nikon E600 Upright microscope (Nikon Instruments) using ImagePro Plus software (Media Cybernetics) for image processing. Statistical analysis was performed using two-tailed Student t Test.

[6] = tested on: TERRA antisense (5'-fluorescein) (RNA, single strand) CCCUAACCCUAACCCUAACCCUAA; experiment: fluorescence polarization; settings: 150 mM salt (KCl, NaCl or LiCl; which not stated); 20 mM HEPES pH 7.5, room temperature, tRNA competitor; dilutions from 50 μM compound
[7] = tested on: TRF2 binding to telomere DNA; experiment: DNA ChIP assay of TRF2 binding to telomere DNA in LOX cells; assay type: cell-based, human; settings: 2 μM, 2 days
Method: The lysates were sonicated, cleared by centrifugation, and supernatants were diluted 10 fold into IP Buffer (0.01% SDS, 1.1% Triton X-100, 1.2mM EDTA, 16.7mM Tris pH 8.1, 167mM NaCl, protease inhibitors cocktail, 50U/ml SUPERase•in) for IP reaction with rabbit IgG (Santa Cruz Biotechnology) or rabbit polyclonal anti-TRF2 (Pocono Rabbit Farm) at 4 ° C overnight. Each immune complex was collected by Dynal A beads (Invitrogen), washed five times (1 ml wash, 10 mins each) in ChIP related wash buffer at 4 ° C, eluted by addition of 200µl Elution buffer (10mM Tris, pH 8.0, 5mM EDTA, 1% SDS, 50U/ml SUPERase.In) at 70 °C for 20 mins, and the elutes were placed at 70 °C for 2 hrs to reverse cross-linking. […]
DNA ChIP assays was performed as described previously 3 with minor modifications. Briefly, 1 x 10^7 LOX cells treated with indicated chemicals (2 µM) for 48 hrs were subject to ChIP analysis and immunoprecipitated DNA was assayed by DNA dot-blot using 32P-labeled (TTAGGG)4 or Alu probe. […]

[8] = tested on: TeloDNA antisense (5'-fluorescein) (DNA, single strand) CCCTAACCCTAACCCTAACCCTAA; experiment: fluorescence polarization; settings: 150 mM salt (KCl, NaCl or LiCl; which not stated); 20 mM HEPES pH 7.5, room temperature, tRNA competitor; dilutions from 50 μM compound
TERRA [9] = experiment: CD spectroscopy of TERRA mixed with compound; settings: 1:1 molar ratio, 150 mM KCl buffer
Method: All nucleic acids were dissolved in buffer containing 20 mM HEPES pH7.5, 150 mM salt (KCl or LiCl), 20% PEG8000 at the concentration of 10 μM for experiments. A J-815 spectrometer equipped with a PFD-425S Peltier cell holder was used to measure CD spectra at 4 °C between 200 and 340 nm to determine the secondary structure content of various oligo constructs. The molar ellipticity was calculated and the plot was made using Excel.

[10] = tested on: TeloDNA (unlabelled) (DNA, G4) TTAGGGTTAGGGTTAGGGTTAGGG; experiment: fluorescence polarization, displacement of TRF2 GAR peptide; settings: 150 mM salt (KCl, NaCl or LiCl; which not stated); 20 mM HEPES pH 7.5, room temperature; FITC-TRF2 GAR peptide 10 nM; 5 μM oligo; dilutions from 50 μM compound
TeloDNA and TRF2 complex = experiment: FP inhibition assay, TRF2 GAR binding to TeloDNA
Method: as §1

[11] = tested on: TERRA (unlabelled) (RNA, G4) UUAGGGUUAGGGUUAGGGUUAGGG; experiment: fluorescence polarization, displacement of TRF2 GAR peptide; settings: 150 mM salt (KCl, NaCl or LiCl; which not stated); 20 mM HEPES pH 7.5, room temperature; FITC-TRF2 GAR peptide 10 nM; 5 μM oligo; dilutions from 50 μM compound
[12] = 150 mM KCl, NaCl or LiCl (salt not specified), 20 mM HEPES, tRNA competitor added, 10 nM probe, apparent
[13] = 10 nM fluorescein-labeled probe, 3 independent experiments

peptide binding to TeloDNA (TeloDNA): no detectable binding
peptide binding to TERRA (TERRA [1]): no detectable binding
Compound: AAAGAAASASSGAAAAGAHEPGLGGPAEAGAGEAA [Ala mutant, control peptide with each of the 10 arginine residues mutated to alanine]
peptide binding to antisense TERRA (antisense TERRA): Neither TRF2 GAR nor the Ala mutant showed any detectable binding
peptide binding to antisense TeloDNA (antisense TeloDNA): Neither TRF2 GAR nor the Ala mutant showed any detectable binding

EC50 [3, 12]: 660 nM
EC50 (TERRA [4]; [13]): 660 nM
EC50 (G4 TeloDNA; [13]): 50 nM
EC50 [5, 12]: 50 nM
EC50 (EBNA1 G4 RNA): 199 nM
binding to EBNA1 G4 RNA (EBNA1 G4 RNA): high binding affinity
Compound: NCCOc1cc(C(=O)Nc2cc(OCCN)c3ccccc3n2)nc(C(=O)Nc2cc(OCCN)c3ccccc3n2)c1 [PDS, pyridostatin]
total TERRA levels relative to PP control (TERRA in LOX cells; 2 μM, 3 days, RNA dot blot and Northern blot): also reduced TERRA levels
telomere repeat DNA signals [2]: to a lesser extent

binding [3]: no
binding to TERRA (TERRA [4]): only PDS bound
binding activity for G4 TeloDNA (G4 TeloDNA): only PDS bound
binding [5]: no
Compound: C[n+]1cc(NC(=O)c2ccc3ccc4ccc(C(=O)Nc5cc6ccccc6[n+](C)c5)nc4c3n2)cc2ccccc21 [Phen-DC3]

binding [3]: no
binding to TERRA (TERRA [4]): only PDS bound
binding activity for G4 TeloDNA (G4 TeloDNA): only PDS bound
binding [5]: no
Compound: COS(=O)(=O)[O-].Cc1cc2c3c([n+](C)c4ccc(F)cc4c3c1)-c1cc(F)ccc1N2C [RHPS4, acridinium methosulfate]

Second part, the compound before the results:

Compound: C[C@H]1c2cccc(O)c2C(=O)C2=C(O)[C@]3(O)C(=O)C(C(N)=O)=C(O)[C@@H](N(C)C)[C@@H]3[C@@H](O)[C@@H]21 [Dox, doxycycline]
effect of Dox treatment on TERRA (TERRA in LOX cells; doxycycline 1 µg/ml, 2 days, RNA dot blot): no effect on TERRA

Compound: C=CC1=C(C)c2cc3[nH]c(cc4nc(cc5[nH]c(cc1n2)c(C)c5CCC(=O)O)C(CCC(=O)O)=C4C)c(C)c3C=C [PP, protoporphyrin IX]
accumulation of TERRA as a shorter form (TERRA in LOX cells; 2 μM, 3 days, Northern blot): not observed
IC50 for TRF2 GAR-TERRA (TERRA and TRF2 complex): no measurable IC50
level of γH2AX or 53BP1 associated telomere dysfunction-induced foci (TIFs) (LOX cells): equivalent to background
binding [6]: no
binding [3]: no
binding to TERRA (TERRA [4]): no measurable affinity
effect on TRF2 binding to telomere DNA [7]: Neither NMM, PP, nor BRACO-19 had any significant effect
binding [8]: no
alteration of CD spectrum of TERRA at major peak (~260 nm) (TERRA [9]): not BRACO-19 or PP altered the CD spectrum
binding activity for G4 TeloDNA (G4 TeloDNA): no binding activity
binding [10]: no
IC50 for TRF2 GAR-TeloDNA (TeloDNA and TRF2 complex): no measurable IC50
binding [11]: no
binding [5]: no
binding to EBNA1 G4 RNA (EBNA1 G4 RNA): did not display any binding
